Results: ChEMBL document CHEMBL1201862, “PubChem BioAssay data set” (2004)
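Five compound concentrations were applied to cells in 96-well plates for 48 hours; endpoints were derived by simple linear interpolation of the resulting dose-response curve. GI50 = concentration required for 50% inhibition of growth.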 Calls of active or inactive are those of the source. No stated cut-off is given here; in the data, active = GI50 up to about 1.1 µM and inactive = higher.

Legend:
Assay in all cases: NCI tumour cell line growth inhibition, 48 h
[1] = test system: HOP-18
[2] = test system: OVCAR-5
[3] = test system: LOX IMVI
[4] = test system: DMS-273
[5] = test system: HCC 2998
[6] = test system: UACC-257
[7] = test system: SK-OV-3
[8] = test system: OVCAR-8
[9] = test system: Malme-3M
[10] = test system: OVCAR-3
[11] = test system: M19-MEL
[12] = test system: SNB-75
[13] = test system: SNB-19
[14] = test system: CCRF-CEM
[15] = test system: CAKI-1
[16] = test system: UACC-62
[17] = test system: SK-MEL-5
[18] = test system: DMS-114
[19] = test system: SF-295
[20] = test system: NCI-H460
[21] = test system: LXFL 529
[22] = test system: XF498
[23] = test system: HCT-15
[24] = test system: TK-10
[25] = test system: RXF 393
[26] = test system: K562
[27] = test system: SF-539
[28] = test system: COLO 205
[29] = test system: HOP-92
[30] = test system: SK-MEL-28
[31] = test system: SR
[32] = test system: HCT-116
[33] = test system: HL-60
[34] = test system: SF-268
[35] = test system: ACHN
[36] = test system: HOP-62
[37] = test system: NCI-H23
[38] = test system: A549
[39] = test system: KM-20L2
[40] = test system: DLD-1
[41] = test system: UO-31
[42] = test system: SW-620
[43] = test system: SN12C
[44] = test system: EKVX
[45] = test system: HT-29
[46] = test system: 786-0
[47] = test system: M14
[48] = test system: MOLT-4
[49] = test system: KM12
[50] = test system: OVCAR-4
[51] = test system: U-251
[52] = test system: A498
[53] = test system: IGROV-1
[54] = test system: NCI-H522
[55] = test system: NCI-H226
[56] = test system: SNB-78

**Q.** What does the source list for `CC1=C2[C@H](c3ccccc3)C3C=CC2(c2ccccc23)N(C(=O)C(c2ccccc2)c2ccccc2)C1=O` (stereo partly drawn)?
**A.** GI50 [1]: > 100 µM (inactive); GI50 [2]: > 100 µM (inactive); GI50 [3]: > 100 µM (inactive); GI50 [4]: > 100 µM (inactive); GI50 [5]: > 100 µM (inactive); GI50 [6]: > 100 µM (inactive); GI50 [7]: > 100 µM (inactive); GI50 [8]: > 100 µM (inactive); GI50 [9]: > 100 µM (inactive); GI50 [10]: > 100 µM (inactive); GI50 [11]: > 100 µM (inactive); GI50 [12]: > 100 µM (inactive); GI50 [13]: > 100 µM (inactive); GI50 [14]: > 100 µM (inactive); GI50 [15]: > 100 µM (inactive); GI50 [16]: > 100 µM (inactive); GI50 [17]: > 100 µM (inactive); GI50 [18]: > 100 µM (inactive); GI50 [19]: > 100 µM (inactive); GI50 [20]: > 100 µM (inactive); GI50 [21]: > 100 µM (inactive); GI50 [22]: > 100 µM (inactive); GI50 [23]: > 100 µM; GI50 [24]: > 100 µM (inactive); GI50 [25]: > 100 µM (inactive); GI50 [26]: > 100 µM (inactive); GI50 [27]: > 100 µM (inactive); GI50 [28]: > 100 µM (inactive); GI50 [29]: > 100 µM (inactive); GI50 [30]: > 100 µM (inactive); GI50 [31]: > 100 µM (inactive); GI50 [32]: > 100 µM (inactive); GI50 [33]: 41.3 µM (inactive); GI50 [34]: > 100 µM (inactive); GI50 [35]: > 100 µM (inactive); GI50 [36]: > 100 µM (inactive); GI50 [37]: > 100 µM (inactive); GI50 [38]: > 100 µM (inactive); GI50 [39]: > 100 µM (inactive); GI50 [40]: > 100 µM (inactive); GI50 [41]: > 100 µM (inactive); GI50 [42]: > 100 µM (inactive); GI50 [43]: > 100 µM (inactive); GI50 [44]: > 100 µM (inactive); GI50 [45]: > 100 µM (inactive); GI50 [46]: > 100 µM (inactive); GI50 [47]: > 100 µM (inactive); GI50 [48]: > 100 µM (inactive); GI50 [49]: > 100 µM (inactive); GI50 [50]: > 100 µM (inactive); GI50 [51]: > 100 µM (inactive); GI50 [52]: > 100 µM (inactive); GI50 [53]: > 100 µM (inactive)

**Q.** With `Nc1cc(C(=O)NC2C3CC4CC(C3)CC2C4)nc(S)n1` (stereo not drawn) as the compound, how does the GI50 [54] read?
**A.** > 100 µM (inactive)

**Q.** What about the GI50 [5] of the same compound?
**A.** > 100 µM (inactive)

**Q.** What about the GI50 [6] of the same compound?
**A.** > 100 µM (inactive)

**Q.** What about the GI50 [7] of the same compound?
**A.** > 100 µM (inactive)

**Q.** And the GI50 [8]?
**A.** > 100 µM (inactive)

**Q.** And the GI50 [9]?
**A.** > 100 µM (inactive)

**Q.** What about the GI50 [10] of the same compound?
**A.** > 100 µM (inactive)

**Q.** What about the GI50 [11] of the same compound?
**A.** > 100 µM (inactive)

**Q.** And the GI50 [12]?
**A.** > 100 µM (inactive)

**Q.** What about the GI50 [13] of the same compound?
**A.** > 100 µM (inactive)

**Q.** And the GI50 [14]?
**A.** > 100 µM (inactive)

**Q.** And the GI50 [15]?
**A.** > 100 µM (inactive)

**Q.** What about the GI50 [17] of the same compound?
**A.** > 100 µM (inactive)

**Q.** What about the GI50 [55] of the same compound?
**A.** > 100 µM (inactive)

**Q.** What about the GI50 [20] of the same compound?
**A.** > 100 µM (inactive)

**Q.** What about the GI50 [21] of the same compound?
**A.** > 100 µM (inactive)

**Q.** What about the GI50 [22] of the same compound?
**A.** > 100 µM (inactive)

**Q.** And the GI50 [23]?
**A.** > 100 µM

**Q.** What about the GI50 [25] of the same compound?
**A.** > 100 µM (inactive)

**Q.** What about the GI50 [26] of the same compound?
**A.** > 100 µM (inactive)

**Q.** And the GI50 [27]?
**A.** > 100 µM (inactive)

**Q.** And the GI50 [29]?
**A.** > 100 µM (inactive)

**Q.** And the GI50 [30]?
**A.** > 100 µM (inactive)

**Q.** And the GI50 [31]?
**A.** > 100 µM (inactive)

**Q.** What about the GI50 [32] of the same compound?
**A.** > 100 µM (inactive)

**Q.** And the GI50 [33]?
**A.** > 100 µM (inactive)

**Q.** What about the GI50 [34] of the same compound?
**A.** > 100 µM (inactive)

**Q.** And the GI50 [36]?
**A.** > 100 µM (inactive)

**Q.** And the GI50 [37]?
**A.** > 100 µM (inactive)

**Q.** And the GI50 [38]?
**A.** > 100 µM (inactive)

**Q.** And the GI50 [56]?
**A.** > 100 µM (inactive)

**Q.** And the GI50 [39]?
**A.** > 100 µM (inactive)

**Q.** And the GI50 [40]?
**A.** > 100 µM (inactive)

**Q.** And the GI50 [41]?
**A.** > 100 µM (inactive)

**Q.** And the GI50 [42]?
**A.** > 100 µM (inactive)

**Q.** What about the GI50 [43] of the same compound?
**A.** > 100 µM (inactive)

**Q.** What about the GI50 [44] of the same compound?
**A.** > 100 µM (inactive)

**Q.** And the GI50 [45]?
**A.** > 100 µM (inactive)

**Q.** And the GI50 [46]?
**A.** > 100 µM (inactive)

**Q.** What about the GI50 [47] of the same compound?
**A.** > 100 µM (inactive)

**Q.** What about the GI50 [48] of the same compound?
**A.** > 100 µM (inactive)

**Q.** And the GI50 [50]?
**A.** > 100 µM (inactive)

**Q.** And the GI50 [51]?
**A.** > 100 µM (inactive)

**Q.** And the GI50 [52]?
**A.** > 100 µM (inactive)

**Q.** And the GI50 [53]?
**A.** > 100 µM (inactive)
